Here are results for two compounds from patent US9421177B2, “Imidamide sphingosine kinase inhibitors” (University of Virginia Patent Foundation, priority 2009, dated 2016).

Some results are limits rather than exact numbers.

One data set concerns the target human SphK1 (Homo sapiens (Human), UniProt Q9NYA1). The data set is described as follows: Determination of Ki values, recombinant human SphK1 in Sf9 cell homogenates. The format is biochemical. Particulars: amidine HCl salt; recombinant human SphK1, Sf9 homogenate, 37 C, 20 minutes; read-out: SphK1 inhibitory constant (Ki). As to the method: (§1) Sphingosine kinase activity was assessed as described previously (Kharel, Y., Lee, S., Snyder, A. H., Sheasley-O'Neill, S. L., Morris, M. A., Setiady, Y., Zhu, R., Zigler, M. A., Burcin, T. L., Ley, K., Tung, K. S. K., Engelhard, V. H., Macdonald, T. L. and Lynch, K. R. Sphingosine kinase 2 is required for modulation of lymphocyte traffic by FTY720. J Biological Chemistry 280: 36865-36872 (2005)). High levels of human sphingosine kinase type 1 (mSK1) and mouse sphingosine kinase type 2 (mSK2) were expressed in Sf9 insect cells by infection with cognate baculoviruses. Crude homogenates were incubated with γ-[^32P]ATP and 10 micromolar D-erythro-sphingosine in the presence of 100 micromolar concentrations of test compounds for 20 minutes at 37 C. The product, radiolabeled S1P, was isolated by extraction into organic solvents after acidification and […] by thin layer chromatography. […]
(§2) Crude homogenates of Sf9 cells containing high levels of recombinant mouse SphK2 or human SphK1 were incubated with γ-[^32P]ATP and various concentrations (0 to 500 micromolar) of D-erythro-sphingosine for 20 minutes […] at 37 C in the presence of fixed concentration of test compound. The product, radiolabeled S1P, was isolated by extraction into organic solvents followed by thin layer chromatography, recovered and radioactivity measured by liquid scintillation counting. […]

Another data set addresses mouse SphK2 (Mus musculus (Mouse), UniProt Q9JIA7). The data set is described as follows: Determination of Ki values, recombinant mouse SphK2 in Sf9 cell homogenates. The format is biochemical. Particulars: amidine HCl salt; recombinant mouse SphK2, Sf9 homogenate, 37 C, 20 minutes; read-out: SphK2 inhibitory constant (Ki). The protocol: as §1, §2
A short description of data set [1]: Pro-drug activity: conversion of amidoxime to amidine in mice. The class given is in vivo. Particulars: 20 mpk, IP or oral, FIG. 7B. The protocol: Mice were dosed with 20 mpk of amidoxime, VPC96143, both IP and orally. S1P in plasma and organs was measured at times ASAP, 2 hrs and 24 hrs. The compound amidine, VPC96077, was also measured in plasma and organs at times ASAP, 2 hrs and 24 hrs.
Mice Numbering • 51: dosed with 20 mpk amidoxime VPC96143 administered IP. Plasma extracted ASAP and 2 hrs. Organs harvested at 2 hrs. • 52: dosed with 20 mpk amidoxime VPC96143 administered IP. Plasma extracted ASAP and 24 hrs. Organs harvested at 2 hrs. • 53: dosed with 20 mpk amidoxime VPC96143 administered orally. Plasma extracted ASAP and 2 hrs. Organs harvested at 2 hrs.

Sequence of human SphK1 (Q9NYA1 whole entry): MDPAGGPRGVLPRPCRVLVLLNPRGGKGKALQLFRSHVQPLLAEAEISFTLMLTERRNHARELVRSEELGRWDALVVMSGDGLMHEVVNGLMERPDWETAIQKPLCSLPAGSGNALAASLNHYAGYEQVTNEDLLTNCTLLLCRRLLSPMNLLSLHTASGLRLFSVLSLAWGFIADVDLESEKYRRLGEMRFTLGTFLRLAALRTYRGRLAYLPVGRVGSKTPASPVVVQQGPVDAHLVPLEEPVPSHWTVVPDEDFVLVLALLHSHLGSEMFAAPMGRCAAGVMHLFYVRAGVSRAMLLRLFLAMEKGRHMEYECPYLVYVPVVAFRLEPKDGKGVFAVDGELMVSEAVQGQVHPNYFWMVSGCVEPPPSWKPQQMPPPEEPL
Sequence of mouse SphK2 (Q9JIA7 whole entry): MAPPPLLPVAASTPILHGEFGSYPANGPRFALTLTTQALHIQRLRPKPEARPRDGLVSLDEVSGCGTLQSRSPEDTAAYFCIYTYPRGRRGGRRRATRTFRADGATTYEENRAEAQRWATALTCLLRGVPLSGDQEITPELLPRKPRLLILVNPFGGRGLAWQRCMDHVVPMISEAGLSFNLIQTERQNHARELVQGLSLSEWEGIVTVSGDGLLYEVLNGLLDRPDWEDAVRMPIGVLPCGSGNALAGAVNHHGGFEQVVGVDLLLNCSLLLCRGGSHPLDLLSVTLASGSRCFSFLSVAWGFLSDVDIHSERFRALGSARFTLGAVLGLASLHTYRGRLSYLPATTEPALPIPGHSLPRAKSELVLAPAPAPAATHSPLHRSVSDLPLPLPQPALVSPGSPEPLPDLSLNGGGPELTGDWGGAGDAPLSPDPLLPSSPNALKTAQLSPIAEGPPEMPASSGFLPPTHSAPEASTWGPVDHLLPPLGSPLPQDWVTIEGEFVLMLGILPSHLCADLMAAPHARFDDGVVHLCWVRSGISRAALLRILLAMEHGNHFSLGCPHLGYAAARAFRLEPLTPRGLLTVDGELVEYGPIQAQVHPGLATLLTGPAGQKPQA

The Ki is the dissociation constant of the complex between target and ligand, obtained from inhibition or displacement. Regarding `N/C(=N\O)C1(C(=O)Nc2ccc(CCCCCCCCCc3ccccc3)cc2)CC1` [VPC143129], the results for the Ki at human SphK1 and on mouse SphK2 were 500 nM and greater than 10000 nM, respectively. On to `CCCCCCCCCCCc1ccc(C(=O)N2CCC[C@H]2/C(N)=N/O)cc1` [VPC96143], for which the “conversion of amidoxime pro-drug to amidine congener VPC96077 (accumulation in plasma)” value in data set [1] was “conversion of the amidoxime to the amidine in vivo”.
